The values below come from patent US8617516B2, “Universal anchor peptide for nanoparticles” (Washington University, priority 2008, dated 2013).

For data set [1], the system named is 2F2B mouse endothelial cells. The data set can be described thus: XTT cell viability assay (cytotoxicity of peptides). It counts as cell-based. Particulars: 2F2B cells; for IC50: 3 hours of treatment at 37° C., XTT. As for the experimental part: For each peptide, cytotoxicity was assessed in 2F2B mouse endothelial cells by the XTT cell viability assay (Biotium, Hayward, Calif.). Cells were seeded in 96-well plates at 10,000 cells/well 24 hours before treatment with melittin and mutated melittins at selected concentrations. After 3 hours of treatment at 37° C., 25 μl of activated XTT solution was added to each well and incubated at 37° C. for 5 hours. After 5 hours of incubation, plates were gently shaken to achieve even dye distribution. The absorbances of the samples were measured by a microplate reader (Biorad, Model 550, Hercules, Calif.) at a wavelength of 450 nm. Background was subtracted and the results were normalized to untreated control cells.
(Tetrazolium assays rely on reduction of a dye to a coloured formazan, in cell work by metabolically active cells.)

The nature of data set [2]: Surface plasmon resonance (Biacore X 100) binding of peptides on immobilized oil-based nanoparticles. Particulars: sensor chip L1, read-out: dissociation constant. Here is the method:
(§1) In order to evaluate whether linker peptide 1 (LP1) and linker peptide 2 (LP2) still retained high affinity on a lipid monolayer of the nanoparticles, surface plasmon resonance (SPR) studies were performed by using Biacore X 100 (Biacore Inc, Piscataway, N.J.). The binding kinetics and affinity of LP1 and LP2 on two type of nanoparticles were studied. One type was perfluorocarbon nanoparticles (e.g., perfluorooctylbromide, PFOB), the other type was oil-based (safflower core) nanoparticles. PBS (Ca^2+ and Mg^2+ free) was used as the running buffer. Nanoparticles were immobilized on Biacore sensor chip L1 by injecting nanoparticles at a flow rate of 1 μl/min for 30 minutes, followed by a running buffer wash at a flow rate of 100 μl/min for 50 seconds. Peptides in selected concentrations, prepared in running buffer, were then injected at a flow rate of 30 μl/min for 1 minute. At the end of each experiment, the sensor chip surface was regenerated by injection of 3-[(3-cholamidopropyl)dimethylammonio]-1-propanesulfonate (CHAPS) at a flow rate of 100 μl/min for 24 seconds.
(In general: SPR reads the build-up and loss of mass on a sensor chip optically.)

Data set [3] in a line: Surface plasmon resonance (Biacore X 100) binding of peptides on immobilized perfluorocarbon nanoparticles. Particulars: read-out: dissociation constant. As for the experimental part: as §1
The binding kinetics of the resulting VCAM-targeting peptides (i.e., TCP1 and TCP2) on perfluorocarbon nanoparticles were examined using Biacore X 100. PBS (Ca^2+ and Mg^2+ free) was used as the running buffer. Nanoparticles were immobilized on Biacore sensor chip L1 by injecting nanoparticles at a flow rate of 1 μl/min for 30 minutes, followed by a running buffer wash at a flow rate of 100 μl/min for 50 seconds. Targeting peptide prepared at selected concentrations in running buffer was sequentially injected at a flow rate of 30 μl/min for 1 minute. At the end of each experiment, the sensor chip surface was regenerated by injection of 3-[(3-cholamidopropyl)dimethylammonio]-1-propanesulfonate (CHAPS) at a flow rate of 100 μl/min for 24 seconds. FIG. 8 presents selected sensorgrams at several different concentrations of the two VCAM-targeting peptides. The dissociation constant of TCP1 and TCP2 were 0.13 μM and 0.04 μM, respectively.

Data set [4] is described as follows: Dynamic light scattering size and zeta potential of peptide-loaded PFOB/PFC nanoparticles. It counts as physicochemical. Particulars: for zeta potential: PFOB nanoparticles after incorporating the peptide (plain nanoparticles −17.62 mV); for average hydrodynamic diameter: PFOB nanoparticles with versus without inserted peptide. Here is the method: (§2) The size distributions of the nanoparticles with or without the linker peptide were analyzed by dynamic light scattering (Brookhaven Instruments Corp., Holtsville, N.Y.). Zeta potential (ζ) values were determined with a Brookhaven Instruments PALS Zeta Potential Analyzer (Brookhaven Instruments Corp., Holtsville, N.Y.). Data were acquired in the phase-analysis light scattering (PALS) mode following solution equilibration at 25° C. […] This change further confirms the insertion of the linker peptide 1 into the PFOB nanoparticles. Furthermore, the structural integrity of linker peptide 1 inserted PFOB nanoparticles was confirmed by transmission electron microscopy.
The size distributions of the nanoparticles with or without cargo incorporated were analyzed by dynamic light scattering (Brookhaven Instruments Corp., Holtsville, N.Y.). The size distribution was plotted by particle number. Zeta potential (ζ) values were determined with a Brookhaven Instruments PALS Zeta Potential Analyzer (Brookhaven Instruments Corp., Holtsville, N.Y.). Data were acquired in the phase-analysis light scattering (PALS) mode following solution equilibration at 25° C.

Data set [5] in a line: Dynamic light scattering size and zeta potential of peptide-loaded liposomes. It counts as physicochemical. As for the experimental part: as §2
The interactions between linker peptide 1 and liposomes are depicted in FIG. 6. […] This change further confirms that the linker peptide 1 inserted into the liposomes.

A short description of data set [6]: Dissociation of loaded peptide from PFOB nanoparticles (tryptophan fluorescence of supernatant). It counts as physicochemical. Particulars: stored at 4° C., up to 70 hours after loading. As for the experimental part: The dissociation of the peptide from linker peptide 1-loaded PFOB nanoparticles is depicted in FIG. 4. After being loaded with the linker peptide 1, the loaded PFOB nanoparticles were stored at 4° C. for 30 minutes, 1 hour, 2 hours, 4 hours, 22 hours, 46 hours, and 70 hours. The loaded nanoparticles were centrifuged at 100 g for 10 minutes, and the dissociated linker peptide 1 was measured by using tryptophan fluorescence after excitation at 280 nm in a fluorescent spectrofluorometer (Varian Inc, Palo Alto, Calif.).
FIG. 9 presents the dissociation of TCP1 or TCP2 from loaded PFOB nanoparticles as a function of time after loading. After loaded with TCP1 or TCP2, the PFOB nanoparticles were stored at 4° C. for 30 minutes, 1 hour, 2 hours, 4 hours, 22 hours, 46 hours, and 70 hours. The stored nanoparticles were then centrifuged at 100 g for 10 minutes and dissociated TCP1 or TCP2 was measured using tryptophan fluorescence after excitation at 280 nm in a fluorescent spectrofluorometer (Varian Inc, Palo Alto, Calif.).

The mark [7] stands for this setting: on perfluorocarbon nanoparticles, sensor chip L1.

Where “and” joins values, the source holds several entries; their conditions need not be identical. Identical values can stand only once. Where only a bound is given, the exact number is not on record here.

In the case of `CC[C@H](C)[C@H](NC(=O)CNC(C)=O)C(=O)NCC(=O)N[C@@H](C)C(=O)N[C@@H](Cc1c[nH]c2ccccc12)C(=O)N[C@@H](CC(C)C)C(=O)N[C@@H](CCCCN)C(=O)N[C@H](C(=O)N[C@@H](CC(C)C)C(=O)N[C@H](C(=O)N[C@H](C(=O)NCC(=O)N[C@@H](CC(C)C)C(=O)N1CCC[C@H]1C(=O)N[C@@H](C)C(=O)N[C@@H](CC(C)C)C(=O)N[C@H](C(=O)N[C@@H](CO)C(=O)N[C@@H](Cc1c[nH]c2ccccc12)C(=O)N[C@H](C(=O)N[C@@H](CCCCN)C(=O)N[C@@H](CCCNC(=N)N)C(=O)N[C@@H](CCCCN)C(=O)N[C@@H](CCCNC(=N)N)C(=O)N[C@@H](CCC(N)=O)C(=O)N[C@@H](CCC(N)=O)C(N)=O)[C@@H](C)CC)[C@@H](C)CC)[C@@H](C)O)[C@@H](C)O)C(C)C` [Peptide P1], the IC50 (commonly the concentration that inhibits the measured activity by half) in data set [1] is 750 ± 40 nM.

On to `CC[C@H](C)[C@H](NC(=O)CNC(C)=O)C(=O)NCC(=O)N[C@@H](C)C(=O)N[C@H](C(=O)N[C@@H](CC(C)C)C(=O)N[C@@H](CCCCN)C(=O)N[C@H](C(=O)N[C@@H](CC(C)C)C(=O)N[C@H](C(=O)N[C@H](C(=O)NCC(=O)N[C@@H](CC(C)C)C(=O)N[C@@H](C)C(=O)N[C@@H](C)C(=O)N[C@@H](CC(C)C)C(=O)N[C@H](C(=O)N[C@@H](CO)C(=O)N[C@@H](Cc1c[nH]c2ccccc12)C(=O)N[C@H](C(=O)N[C@@H](CCCCN)C(=O)N[C@@H](CCCNC(=N)N)C(=O)N[C@@H](CCCCN)C(=O)N[C@@H](CCCNC(=N)N)C(=O)N[C@@H](CCC(N)=O)C(=O)N[C@@H](CCC(N)=O)C(N)=O)[C@@H](C)CC)[C@@H](C)CC)[C@@H](C)O)[C@@H](C)O)C(C)C)C(C)C` [Peptide P2], for which the Kd in data set [2] was 0.64 nM. In data set [1], the “cytotoxicity among the modified peptides (FIG. 2)” value was “least cytotoxicity” and the IC50 is 26600 ± 560 nM. Also, the Kd in data set [3] (setting [7]) was determined as 5.48 nM.

Compound `CC[C@H](C)[C@H](NC(=O)[C@H](CC(C)C)NC(=O)[C@H](C)NC(=O)[C@@H]1CCCN1C(=O)[C@H](CC(C)C)NC(=O)CNC(=O)[C@@H](NC(=O)[C@@H](NC(=O)[C@H](CC(C)C)NC(=O)[C@@H](NC(=O)[C@H](CCCCN)NC(=O)[C@H](CC(C)C)NC(=O)[C@@H](NC(C)=O)C(C)C)C(C)C)[C@@H](C)O)[C@@H](C)O)C(=O)N[C@@H](CO)C(=O)N[C@@H](Cc1c[nH]c2ccccc12)C(=O)N[C@H](C(=O)N[C@@H](CCCCN)C(=O)N[C@@H](CCCNC(=N)N)C(=O)N[C@@H](CCCCN)C(=O)N[C@@H](CCCNC(=N)N)C(=O)N[C@@H](CCC(N)=O)C(=O)N[C@@H](CCC(N)=O)C(N)=O)[C@@H](C)CC` [Peptide P3] had a half-inhibitory concentration (IC50) in data set [1] of 14400 ± 920 nM.

For the compound `CC[C@H](C)[C@H](NC(=O)[C@H](CC(C)C)NC(=O)[C@H](C)NC(=O)[C@@H]1CCCN1C(=O)[C@H](CC(C)C)NC(=O)CNC(=O)[C@@H](NC(=O)[C@@H](NC(=O)[C@H](CC(C)C)NC(=O)[C@@H](NC(C)=O)C(C)C)[C@@H](C)O)[C@@H](C)O)C(=O)N[C@@H](CO)C(=O)N[C@@H](Cc1c[nH]c2ccccc12)C(=O)N[C@H](C(=O)N[C@@H](CCCCN)C(=O)N[C@@H](CCCNC(=N)N)C(=O)N[C@@H](CCCCN)C(=O)N[C@@H](CCCNC(=N)N)C(=O)N[C@@H](CCC(N)=O)C(=O)N[C@@H](CCC(N)=O)C(N)=O)[C@@H](C)CC` [Peptide P4, VLTTGLPALISWIKRKRQQ], the figures for the Kd in data set [2] and in data set [3] (setting [7]) were 22.9 nM and 225 nM, respectively. In addition, the zeta potential result is on record as “+23.33 mV” in data set [4] and −29.843 mV in data set [5] (liposomes after incorporating the peptide (plain liposomes −36.73 mV)). Further, the average hydrodynamic diameter entry in data set [4] and in data set [5] (liposomes with versus without inserted peptide) was “not affected” each time. Also, the “cytotoxicity among the modified peptides (FIG. 2)” value in data set [1] was “least cytotoxicity”. For the same compound, in data set [1], the IC50 was 114000 nM and 115000 nM. For the same compound, the “decrease in cytotoxicity compared to MMLT” value in data set [1] (ratio of cytotoxicity index (IC50)) is on record as approximately 50 fold. In addition, the cell toxicity result in data set [1] (up to a concentration of 90 μM) is recorded as “essentially no cell toxicity”. Besides, the “loaded peptide dissociated from the PFOB nanoparticles” value in data set [6] is less than 10%.

`CC[C@H](C)[C@H](NC(=O)CNC(C)=O)C(=O)NCC(=O)N[C@@H](C)C(=O)N[C@H](C(=O)N[C@@H](CC(C)C)C(=O)N[C@@H](CCCCN)C(=O)N[C@H](C(=O)N[C@@H](CC(C)C)C(=O)N[C@H](C(=O)N[C@H](C(=O)NCC(=O)N[C@@H](CC(C)C)C(=O)N1CCC[C@H]1C(=O)N[C@@H](C)C(=O)N[C@@H](CC(C)C)C(=O)N[C@H](C(=O)N[C@@H](CO)C(=O)N[C@@H](Cc1c[nH]c2ccccc12)C(=O)N[C@H](C(=O)N[C@@H](CCCCN)C(=O)N[C@@H](CCCNC(=N)N)C(N)=O)[C@@H](C)CC)[C@@H](C)CC)[C@@H](C)O)[C@@H](C)O)C(C)C)C(C)C` [Peptide P5]: the midpoint of inhibition in data set [1], the IC50, lay at 6410 ± 640 nM.

As for VHPKQHRggVLTTGLPALISWIKR [TCP2], in data set [4], the zeta potential is 12.43 mV and the average hydrodynamic diameter entry is “not affected”. Also, the Kd in data set [3] (VCAM-targeting peptides on perfluorocarbon nanoparticles) amounted to 40 nM.
